Series [1] relates to Protease XXIII from Aspergillus oryzae (Sigma, Enzyme A). Kind of series: Homogeneous aqueous enzymatic resolution (ester hydrolysis), Enzyme A. The format is biochemical. How it is done:
No further purification was performed.

The target of series [2] is T1, Protease XXVII, Nagarse (Sigma, Enzyme D) (Bacillus amyloliquefaciens, UniProt P00782).
T1 construct: purchased Sigma
T1 sequence (P00782 108-382): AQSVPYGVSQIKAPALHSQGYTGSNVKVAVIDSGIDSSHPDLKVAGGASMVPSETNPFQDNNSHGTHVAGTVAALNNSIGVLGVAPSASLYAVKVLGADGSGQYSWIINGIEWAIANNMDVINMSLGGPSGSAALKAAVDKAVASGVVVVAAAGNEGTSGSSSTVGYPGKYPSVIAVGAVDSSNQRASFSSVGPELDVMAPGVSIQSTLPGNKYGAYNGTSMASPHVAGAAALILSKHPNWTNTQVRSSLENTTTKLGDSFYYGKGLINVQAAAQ
The experiment in a line: Homogeneous aqueous enzymatic resolution (ester hydrolysis), Enzyme D. In kind it is biochemical. Conditions: 150 mg enzyme D.

Series [3] deals with Pig Liver Esterase (Sigma E-3128, Enzyme E). Kind of series: Homogeneous aqueous enzymatic resolution (ester hydrolysis), Enzyme E. In kind it is biochemical. Particulars: 30 mg Pig Liver Esterase (E).
The target of series [4] is T2, Protease VIII, Subtilopeptidase A (subtilisin Carlsberg) (Sigma, Enzyme B) (Bacillus licheniformis, UniProt P00780).
T2 sequence (P00780 106-379): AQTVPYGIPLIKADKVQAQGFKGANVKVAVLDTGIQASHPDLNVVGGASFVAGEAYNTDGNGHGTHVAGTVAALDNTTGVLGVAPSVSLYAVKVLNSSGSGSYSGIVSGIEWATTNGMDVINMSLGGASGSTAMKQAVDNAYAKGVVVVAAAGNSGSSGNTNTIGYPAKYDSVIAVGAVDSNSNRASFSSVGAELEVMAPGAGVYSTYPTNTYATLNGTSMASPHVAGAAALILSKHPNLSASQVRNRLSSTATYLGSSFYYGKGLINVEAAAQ
Kind of series: Homogeneous aqueous enzymatic resolution (ester hydrolysis), Enzyme B. The format is biochemical. Particulars: for % e.e.: acid product.

The test system of series [5] is protease Prozyme 6 from Aspergillus oryzae (Amano, Enzyme F). Kind of series: Homogeneous aqueous enzymatic resolution (ester hydrolysis), Enzyme F. The format is biochemical. Particulars: for % CONVERSION: 10 mmol ester in 100 ml 0.2M buffer pH 7.0, 25 C. How it is done: (§1) The enzymatic reaction mixtures were capped and briefly shaken until all the substrate had dissolved, and the enzyme had completely dissolved or dispersed. […] Evaporation of the ether left a white solid. Rotations were measured at c=1 in CHCl3.
as §1
The reaction was started by adding 100 mg of the protease (F) from the fungus Aspergillus oryzae (from Amano Enzyme Corporation, Prozyme 6, 60,000 units per mg of solid).
After 20 hours at room temperature, the solution was acidified to pH 2 and extracted with 3 volumes of diethyl ether. The aqueous phase was saved for subsequent workup. The ether phase was washed with two volumes of distilled water and then one volume of saturated sodium chloride, and then it was dried over MgSO4 and subsequently evaporated to dryness. The resolved ibuprofen product recovered was 930 mg of white powder, indicating 45% conversion of racemic ester to acid. The optical rotation was -0.580° (measured at c=1 in ethanol), indicating the R isomer of ibuprofen.
35 mg of protease Enzyme F, as the commercial preparation Prozyme 6, were added to the aqueous solution. The reaction flask was capped, and briefly shaken until all the enzyme had dissolved or dispersed. […] The resulting mixture was diluted with one volume of water and was extracted with diethyl ether (2 times 200 ml). The ether layers were combined and backwashed with water (2 times 200 ml), saturated NaCl solution (200 ml), and then dried over MgSO4.
In this control run, a 0.5M ester solution of (1) was prepared in 325 ml of 0.1M sodium phosphate buffer (pH 7.0). The reaction was started by adding 3 gm of the above enzyme (F). The pH was controlled at 7.0 with 8.22M sodium hydroxide. After 6.49 hours at 30 ° C., 6.63 ml of hydroxide were added, indicating 37.7% conversion. The reaction was allowed to continue overnight and, after 23.1 hours, a total of 7.2 ml of sodium hydroxide were added, indicating 40.9% conversion.

The subject of series [6] is lipase derived from Candida cylindracea (Genzyme, Enzyme G). Kind of series: Asymmetric hydrolysis in a multiphase membrane bioreactor, Enzyme G.
Procedure: 3.0 grams of the lipase were dissolved in 500 mls of distilled water; this solution was recirculated in an ultrafiltration mode from the shell into the lumen and back to the reservoir for 30 minutes. The ultrafiltrate was then collected until the reservoir was empty, and methyl isobutyl ketone (MIBK) was then pumped into the shell and recirculated at 400-450 ml/min with a 5-7 psig shell pressure to remove any remaining enzyme solution from the shell.
A reactor was prepared as described in Example 6.2.2.5 (naproxen) using essentially the same mode of loading the enzyme, 3.0 grams of Candida lipase (Enzyme G, from Genzyme Corporation) were ultrafiltered from the shell into the lumen. The enzyme was then washed with 2-3 l of distilled water and 1 l of potassium phosphate buffer (0.10 M, pH 7.7). The module was then drained.
No organic solvent was required as the substrate is already a water-immiscible liquid. Phosphate buffer was immediately pumped into the lumen and recirculated at 400-450 ml/min.
The reaction was monitored by following acid production based on hydroxide titration data. […] The aqueous buffer was replaced after 76 minutes and acidified to pH 2.0 with concentrated HCl in the presence of about 200 ml of chloroform.
The test system of series [7] is Candida lipase (Sigma L-1754, Enzyme H). Kind of series: Asymmetric hydrolysis in a multiphase membrane bioreactor, Enzyme H. Conditions: 210 gm neat ester.
Procedure: The enzyme solution was recirculated from the shell side to the lumen side and back to the solution reservoir in an ultra-filtration mode. […] The procedure was completed in one hour.
After loading the enzyme to the reactor, recirculation of 210 gm. […] The recirculation rate was 400 ml/min and the average pressure on the shell compartment was kept at 6.5 psi by adjusting a throttling valve at the shell side exit. On the lumen side 1 liter of 0.05M K was recirculated at a rate of 400 ml/min. The pH of the aqueous reservoir was kept at 7.0 by addition of 1M NaOH. The reactor was run continuously for 6.8 days.
The reaction progress and rate were monitored by following the caustic consumption. […] The initial ester substrate to the reactor had no optical rotation.
Where [8] appears, read: 0.010 mol ester in 100 ml 0.2M sodium phosphate pH 7.8.

Counter-ions that a name gives are not always drawn.

Consider `CC(C)Cc1ccc(C(C)C(=O)OCCCS(=O)(=O)O)cc1` (racemic) [Compound 3, Potassium Salt of 3-SulfopropylEster of 2-(4-Isobutylphenyl)propanoic Acid], for which the “% CONVERSION” value in series [1] (100 mg enzyme A, 10 mmol ester in 100 ml 0.2 M phosphate buffer pH 7.0, 20-22 C, 20 hours) is 50.0%; in series [2] (setting [8]), 32.0%; in series [3] (setting [8]), 12.1%. Further, the “conversion of the racemic ester to acid” value in series [1] (1.00 gm enzyme A, about 1M ester, pH 7.0, room temperature, 23.9 hours, by NaOH titration) is on record as 29%. For the same compound, the “% e.e.” value in series [2] (acid product, pH 7.8) is 91.0%; in series [3] (acid product, pH 7.8), 88.0%.

Consider `CC(C)Cc1ccc(C(C)C(=O)OCC[N+](C)(C)C)cc1` (racemic) [Compound 10, Iodide Salt of 2-(N,N,N-Trimethylammonium)ethyl Ester of 2-(4-Isobutylphenyl)propanoic Acid], for which the “% e.e.” value in series [1] (acid product, 100 mg enzyme A, pH 7.0, 20-22 C, 20 hours) was above 99%.

With `CC(CSC(=O)c1ccccc1)C(=O)OCS(=O)(=O)O` (racemic) [Compound 16, Potassium Salt of the Sulfomethyl Ester of (±)-S-3-Benzoylthio-2-methylpropanoic Acid], the “% CONVERSION” value is on record as 53% in series [1] (100 mg enzyme A, 10.0 mmol ester in 100 ml 0.2M buffer pH 7.0, 25 C, 18 hours) and 26% in series [4] (100 mg enzyme B, 10.0 mmol ester in 100 ml 0.2M buffer pH 7.0, 25 C, 18 hours). The “% e.e.” value in series [1] (acid product, 100 mg enzyme A, pH 7.0, 25 C, 18 hours) turned out to be 3%; in series [4] (100 mg enzyme B, pH 7.0, 25 C, 18 hours), 10%.

As for `CC(C)Cc1ccc(C(C)C(=O)OCCS(=O)(=O)O)cc1` (stereo not shown) [Compound 2, Sodium Salt of 2-Sulfoethyl Ester of 2-(4-Isobutylphenyl)propanoic Acid], the “% e.e.” value is above 99% in series [1] (acid product, 150 mg enzyme A, 125 ml, pH 7.0, 18 hours) and 90.0% in series [4] (150 mg enzyme B, 125 ml, pH 7.0, 18 hours).

For the compound `CC(C)Cc1ccc(C(C)C(=O)OCCCCS(=O)(=O)O)cc1` (stereo not shown) [Compound 4, Potassium Salt of 4-Sulfobutyl Ester of 2-(4-Isobutylphenyl)propanoic Acid], the “% CONVERSION” value in series [4] (100 mg enzyme B, 10 mmol ester in 100 ml 0.2 M phosphate buffer pH 7.0, 20-22 C, 20 hours) is recorded as 20.0%.

Turning to `COc1ccc2cc(C(C)C(=O)OCCCS(=O)(=O)O)ccc2c1` (stereo not shown) [Compound 7, Potassium Salt of the 3-Sulfopropyl Ester of 2-(6-Methoxy-2-naphthyl)propanoic Acid], in series [1] (naproxen acid product, 150 mg enzyme A, pH 7.8, 18 hours (Table 12)), the “% e.e.” value stood at 78.0%.

On to `COc1ccc2cc(C(C)C(=O)OCCS(=O)(=O)O)ccc2c1` (stereo not shown) [Compound 8, Potassium Salt of 2-Sulfoethyl Ester of 2-(6-Methoxy-2-naphthyl) propanoic Acid], for which, in series [1] (naproxen acid product, 150 mg enzyme A, pH 7.8 (Table 13)), the “% e.e.” value turned out to be 59.0%.

For `COc1ccc2cc(C(C)C(=O)OCS(=O)(=O)O)ccc2c1` (stereo not shown) [Compound 9, Sodium Salt of Sulfomethyl Ester of 2-(6-Methoxy-2-naphthyl)propanoic Acid], the “enantiomeric excess of S isomer of Naproxen (from unconverted ester hydrolyzed at pH 12)” value in series [1] (100 mg enzyme A, pH 7.5, 25 degrees, 16 hours, from rotation in CHCl3) is reported as 45.5%.

On to `COc1ccc2cc(C(C)C(=O)OCC[N+](C)(C)C)ccc2c1` (stereo not shown) [Compound 11, Methyl Sulfate Salt of 2-(N,N,N-Trimethylammonium)ethyl Ester of 2-(6-Methoxy-2-naphthyl)propanoic Acid], for which the “% CONVERSION” value in series [5] (100 mg Prozyme 6 (F), 18 hours) was 24.3%. The “% e.e.” value in series [5] (naproxen acid product, 100 mg Prozyme 6 (F), pH 7.0, 25 C, 18 hours) is recorded as 34.0%.

Consider `COc1ccc2cc(C(C)C(=O)OCCC[N+](C)(C)C)ccc2c1` (stereo not shown) [Compound 12, Methyl Sulfate Salt of 3-(N,N,N-Trimethylammonium)propyl Ester of 2-(6-Methoxy-2-naphthyl)propanoic Acid], for which, in series [5] (100 mg Prozyme 6 (F), 18 hours), the “% CONVERSION” value was found to be 34.0%.

On to `CC(Oc1ccc(Cl)cc1)C(=O)OCS(=O)(=O)O` (stereo not shown) [Compound 17, Sodium Salt of the Sulfomethyl Ester of 2-(4-Chlorophenoxy)propanoic Acid], for which the completion of reaction in series [5] (35 mg Prozyme 6 (F), 10 mmol ester in 100 ml 0.2M sodium phosphate pH 7.0, 30 C, 1 hour) is 22.5%.

On to `COC(=O)C(C)c1ccc2cc(OC)ccc2c1` (stereo not shown) [Compound 18, Methyl Ester of 2-(6-Methoxy-2-naphthyl)propanoic Acid], for which the “average rate of hydrolysis, first 45 minutes” value in series [6] (0.75M ester in MIBK, 3.0 grams lipase in 0.85 m2 module, pH 8.50) worked out at 35 µmol/h.

Turning to `CC(C)Cc1ccc(C(C)C(=O)OCC(F)(F)F)cc1` (stereo not shown) [Compound 19, 2,2,2-Trifluoroethyl Ester of 2-(4-Isobutylphenyl)propanoic Acid], the “average hydrolytic rate, first 60 minutes” value in series [6] (neat liquid ester, 3.0 grams lipase, pH 7.7) was found to be 160 µmol/min. Moreover, the “average hydrolysis rate, next 76 hours” value in series [6] (neat liquid ester, 3.0 grams lipase, pH 7.7, by titrimetry) is 21 µmol/min. For the same compound, the conversion to acid result in series [6] (neat liquid ester, 3.0 grams lipase, pH 7.7, over the 76 hours) is given as “about 9.8%”.

`CCCCCCCCOC(=O)C(C)Cl` (stereo not shown) [Compound 20, Octyl Ester of 2-Chloropropanoic Acid]: the “rate of ester hydrolysis at the beginning of the experiment” value in series [7] (30 grams lipase loaded, pH 7.0) was 186 µmol/min. Besides, in series [7] (pH 7.0, run 6.8 days), the “initial ester hydrolyzed at termination” value was 41% and the “rate of ester hydrolysis at the end of the experiment” value was determined as 25 µmol/min.

These data come from US5198568A, “Compounds useful in enzymatic resolution systems and their preparation” (priority 1991, dated 1993).
